From article PMC7263640 (Journal of visualized experiments : JoVE, 2019)

Biological target: T1, Olfr1377 (Mus musculus, UniProt B2RQ46)
T1 sequence (B2RQ46 1-307): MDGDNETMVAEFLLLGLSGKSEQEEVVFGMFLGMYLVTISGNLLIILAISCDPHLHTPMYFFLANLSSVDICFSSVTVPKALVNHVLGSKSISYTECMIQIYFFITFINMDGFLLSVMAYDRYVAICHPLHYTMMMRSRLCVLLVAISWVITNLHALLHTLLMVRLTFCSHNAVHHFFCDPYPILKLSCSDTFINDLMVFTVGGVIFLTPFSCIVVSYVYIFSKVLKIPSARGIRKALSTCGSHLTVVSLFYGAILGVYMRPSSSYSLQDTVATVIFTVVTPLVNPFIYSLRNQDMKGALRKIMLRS
Test: GloSensor cAMP luminescence in Hana3A cells, vapor-phase odorant
Assay type: cell-based

CC(=O)c1ccccc1 [acetophenone]
EC50: 161 µM
